From patent US20190275169A1, “TARGETED IMMUNOSUPPRESSION FOR OPTOGENETIC INTERVENTION” (Circuit Therapeutics, Inc., priority 2018, published 2019)

Tested on: light responsive excitatory opsin protein ChR2 delivered virally via AAV and expressed in the sensory nerve of a mouse
Assay: Light-responsiveness over time after AAV delivery of ChR2 to the sensory nerve, immunosuppressant paradigms versus saline (FIG. 2A-2I)
Assay type: in vivo
Conditions: drug paradigm and schedule as in FIG. 1; light approx. 450 nm
Source text: Referring to FIG. 1, various drug groupings are listed (2) which have been known to modulate the immune system, including cyclosporine (“Cyc”), cyclosporine+mycophenolate mofetil (“MMF”), dexamethasone, rapamycin in various dosage configurations, rapamycin+dexamethasone+FK506 (also known as “tacrolimus”; an immunosuppressive drug used mainly after organ transplant to lower rejection risk), and metformin (a medication utilized in treating diabetes and polycystic ovary syndrome which also has been inculcated in immune suppression). Each of these listed drugs has previously been approved by the U.S. F.D.A. for different indications, and the depicted drug schedules associated with each grouping feature dosing and scheduling information that previously has been published in different treatment paradigms, such as for cardiovascular or transplant rejection scenarios.
Thus, referring again to the table (2) of FIG. 1, for cyclosporine, a subcutaneous (or “subQ” or “SQ”) regime is listed, wherein cyclosporine is injected subcutaneously for one week prior to injection of genetic material, and then every two days after, as is a cyclosporine+MMF combination (noted as “Cyc+MMF”) which has been used with success, for example, in clinical trials with adeno associated virus (“AAV”) gene therapies; the term “I.P.” or “i.p.” refers to intraperitoneal injection. […]

CN(C)C(=N)N=C(N)N [metformin]
effect on proportion of animals still exhibiting light-responsiveness versus saline: does not seem to have a significant impact
